Measurements reported in ChEMBL document CHEMBL1122772, “Bis(3,5-diisopropylsalicylato)copper(II), a potent radioprotectant with superoxide dismutase mimetic activity” (J Med Chem, 1984).

Tests used:
Format in all cases: functional, organism-based
Mus musculus [1] = species: Mus musculus; test: Rate of diffusion-controlled disproportionation of superoxide
Mus musculus [2] = species: Mus musculus; test: Concentration required for 50% inhibition of superoxide reduction of nitroblue tetrazolium.
Mus musculus [3] = species: Mus musculus; test: Percent reactivity in disproportionating diffusion controlled disproportionation of superoxide

In the case of “bis(2-Hydroxy-3,5-diisopropyl-benzoic acid)copper(II)(bis(3,5-diisopropylsalicylato)copper(II))”, the Rate (Mus musculus [1]) was 2e+09 M⁻¹ s⁻¹, the Concentration (Mus musculus [2]) was 2.9 µM and the Reactivity (Mus musculus [3]) was 0.7%.
For bis(2-Hydroxy-benzoic acid)copper(II), the Rate (Mus musculus [1]) was 1.6e+09 M⁻¹ s⁻¹, the Concentration (Mus musculus [2]) was 4.6 µM and the Reactivity (Mus musculus [3]) was 0.65%.
